This note sets out measurements from patent US20230382928A1, “EUROPIUM(III) COMPLEXES AS PH SENSORS” (CISBIO BIOASSAYS, priority 2020, published 2023).

Data set [1] is described as follows: Absorption spectra / molar extinction coefficient (Beer-Lambert). Format: physicochemical. The conditions noted are these: for λexc (nm): excitation wavelength; for ε: molar extinction coefficient at λexc. How it is done:
The properties of representative complexes of the invention (complexes 14, 18, 21, 78a, 78b, 88a, 88b, 93, 104) were investigated. The presence of the Boc-group was not predicted to alter these properties. The experiments were thus carried out with the Boc group for the functionalized complexes. The absorption and emission spectra were recorded in a pH gradient (pH 4 to pH 10).
(§1) Traditionally, molar extinction coefficients, ε, are calculated using the Beer-Lambert equation and involve measuring the absorbance of a series of solutions of a complex at different known concentrations. A plot of absorbance at a particular wavelength against concentration allows determination of ε from the gradient of the linear correlation. The quantum yield (QY) of the complexes increases as the pH decreases. For complexes 78b, 88a, 88b and 93, the quantum yield at pH 8 is approaching 0 meaning that the complexes are therefore hardly emissive at physiological pH and conversely, these complexes are very bright at pH 4.
This could be useful as excitation at, or near, this wavelength would allow equal excitation of both the unprotonated and protonated complex, which exist in a pH-dependent equilibrium in solution. An isosbestic point was not observed for Complex 14.

Data set [2] is described as follows: Quantum yield of europium complexes at different pH. In kind it is physicochemical. As to conditions: for Q.Y. pH 4 / Q.Y. pH 8: text gives the same values in %; for Q.Y. pH 4 / ΦpH 4 (quantum yield): pH 4; for ΦpH 4 (quantum yield) / ΦpH 8 (quantum yield): λexc 330-332 nm; for Q.Y. pH 8 / ΦpH 8 (quantum yield): pH 8. How it is done: The properties of representative complexes of the invention (complexes 14, 18, 21, 78a, 78b, 88a, 88b, 93, 104) were investigated. The presence of the Boc-group was not predicted to alter these properties. The experiments were thus carried out with the Boc group for the functionalized complexes. […]
as §1

Data set [3] is described as follows: Excited state (emission) lifetime at different pH. In kind it is physicochemical.
Experimental: (§2) An emission lifetime value at each pH was obtained by plotting the decay of the emission lifetime over time and fitting the curve to a simple exponential decay model. The pKa values of the complexes were determined for the reversible protonation.
Data set [4] in a line: Fluorescence intensity at 620 nm as a function of pH (Pherastar FS plate reader). In kind it is physicochemical. The conditions noted are these: pH 4 to pH 7.8; 0.1% BSA; FIG. 29. The protocol:
The fluorescence intensity of representative complexes of the invention (78a, 78b, 104) was measured using a Plate Reader Pherastar FS equipped with a flash lamp. The buffers (pH 4 to pH 7.8) were distributed in a white 96-well plate, then the lanthanide complexes (10 μL at 110 nM) were distributed in an aqueous solution comprising 0.1% BSA. By way of comparison, the fluorescence intensity of the following complexes was also measured: […]

Data set [5] is described as follows: pKa determination from emission lifetime variation versus pH.
Experimental: as §2

Turning to `CCN(CC)c1cc(C#Cc2cc(CN3CCN(Cc4cc(C#Cc5ccc(OCCCC(=O)NCCCS(=O)(=O)[O-])c(N(CC)CC)c5)cc(P(C)(=O)[O-])n4)CCN(Cc4cc(CCCNC(=O)OC(C)(C)C)cc(P(C)(=O)[O-])n4)CC3)nc(P(C)(=O)[O-])c2)ccc1OCCCC(=O)NCCCS(=O)(=O)[O-].[Eu+3]` [Complex 78a], in data set [1] (at the wavelength (330-331 nm)), the “ε (molar extinction coefficient)” value came out at 39000 L M^−1 cm^−1. Further, the “λexc (nm)” value in data set [1] is 330 nm. Moreover, the “ε” value in data set [1] turned out to be 39000 M⁻¹ cm⁻¹. The Q.Y. pH 4 in data set [2] was 16%. For the same compound, in data set [2], the “ΦpH 4 (quantum yield)” value is reported as 16%. Moreover, in data set [2], the Q.Y. pH 8 amounted to 0.3%. Also, the “ΦpH 8 (quantum yield)” value in data set [2] turned out to be 0.3%. Besides, the Excited state lifetime in data set [3] (pH 4) is given as 1.04 ms; in data set [3] (pH 5), 0.98 ms; in data set [3] (pH 6, listed as 78a), 0.7 ms; in data set [3] (pH 6, listed as drawing 109), 0.70 ms; in data set [3] (pH 7), 0.34 ms; in data set [3] (pH 8), 0.25 ms. For the same compound, the “variation of fluorescence intensity at 620 nm as a function of pH” value (shortened to “variation of fluorescence intensity”) in data set [4] is given as “pH sensitive”. The pKa (commonly the negative logarithm of the acid dissociation constant) in data set [5] (295 K, I = 0.1M NaCl) is reported as 6.20.
`CCN(CCCS(=O)(=O)O)c1cc(C#Cc2cc(CN3CCN(Cc4cc(C#Cc5ccc(OC)c(N(CC)CCCS(=O)(=O)O)c5)cc(P(C)(=O)O)n4)CCN(Cc4cc(CCCNC(=O)OC(C)(C)C)cc(P(C)(=O)O)n4)CC3)nc(P(C)(=O)O)c2)ccc1OC` [Complex 88a]: the “ε (molar extinction coefficient)” value in data set [1] (at the wavelength (330-336 nm)) is 35000 M⁻¹ cm⁻¹. In data set [1], the “λexc (nm)” value is 332 nm. Besides, the “ε” value in data set [1] turned out to be 35000 M⁻¹ cm⁻¹. In data set [2], the Q.Y. pH 4 is 13.4%. Besides, in data set [2], the “ΦpH 4 (quantum yield)” value is 13.4%. Further, the “ΦpH 8 (quantum yield)” value in data set [2] is 0.06%. In addition, the Excited state lifetime came out at 1.07 ms in data set [3] (pH 4); 0.76 ms in data set [3] (pH 5); 0.41 ms in data set [3] (pH 6); 0.29 ms in data set [3] (pH 7); 0.31 ms in data set [3] (pH 8); 0.31 ms in data set [3] (pH 9). For the same compound, in data set [5] (0.1 M NaCl (ionic strength)), the pKa worked out at 5.2.
In the case of `CCN(CC)c1cc(C#Cc2cc(CN3CCN(Cc4cc(C#Cc5ccc(OC)c(N(CC)CC)c5)cc(P(C)(=O)[O-])n4)CCN(Cc4cc(C#Cc5ccc(OC)c(N(CC)CC)c5)cc(P(C)(=O)[O-])n4)CC3)nc(P(C)(=O)[O-])c2)ccc1OC.[Eu+3]` [Complex 21], the “ε (molar extinction coefficient)” value in data set [1] (at the wavelength (330-331 nm)) came to 45000 L M^−1 cm^−1. For the same compound, the “λexc (nm)” value in data set [1] turned out to be 331 nm. For the same compound, in data set [1], the “ε” value worked out at 45000 M⁻¹ cm⁻¹. Also, the Q.Y. pH 4 in data set [2] was found to be 17%. For the same compound, in data set [2], the Q.Y. pH 8 turned out to be 0.1%. In addition, the Excited state lifetime in data set [3] (pH 4) was determined as 0.84 ms; in data set [3] (pH 5) it was 0.83 ms; in data set [3] (pH 6), 0.59 ms; in data set [3] (pH 7), 0.32 ms; in data set [3] (pH 8), 0.25 ms; in data set [3] (pH 9), 0.24 ms. Moreover, in data set [5] (295 K, I = 0.1M NaCl), the pKa is 6.21.
With `CCN(CC)c1cc(C#Cc2cc(CN3CCN(Cc4cc(C#Cc5ccc(OCCCC(=O)O)c(N(CC)CC)c5)cc(P(C)(=O)[O-])n4)CCN(Cc4cc(CCCNC(=O)OC(C)(C)C)cc(P(C)(=O)[O-])n4)CC3)nc(P(C)(=O)[O-])c2)ccc1OCCCC(=O)O.[Eu+3]` [Complex 77a], the Excited state lifetime worked out at 0.97 ms in data set [3] (pH 4); 0.95 ms in data set [3] (pH 5); 0.53 ms in data set [3] (pH 6); 0.39 ms in data set [3] (pH 7); 0.27 ms in data set [3] (pH 8).
In the case of `CCN(C)c1cc(C#Cc2cc(CN3CCN(Cc4cc(C#Cc5ccc(OCCCC(=O)NCCCS(=O)(=O)[O-])c(N(C)CC)c5)cc(P(C)(=O)[O-])n4)CCN(Cc4cc(CCCNC(=O)OC(C)(C)C)cc(P(C)(=O)[O-])n4)CC3)nc(P(C)(=O)[O-])c2)ccc1OCCCC(=O)NCCCS(=O)(=O)[O-].[Eu+3]` [Complex 78b], in data set [1] (at the wavelength (330-331 nm)), the “ε (molar extinction coefficient)” value was 39000 L M^−1 cm^−1. Moreover, in data set [1], the “λexc (nm)” value came to 330 nm. For the same compound, in data set [1], the “ε” value turned out to be 39000 M⁻¹ cm⁻¹. The compound further returned a Q.Y. pH 4 in data set [2] of 14.5%. The “ΦpH 4 (quantum yield)” value in data set [2] is given as 14.5%. Moreover, the “ΦpH 8 (quantum yield)” value in data set [2] worked out at 0.01%. Besides, the Excited state lifetime worked out at 1.05 ms in data set [3] (pH 4); 0.77 ms in data set [3] (pH 5); 0.42 ms in data set [3] (pH 6); 0.29 ms in data set [3] (pH 7); 0.3 ms in data set [3] (pH 8, listed as 78b); 0.30 ms in data set [3] (pH 8, listed as drawing 110). The “variation of fluorescence intensity” value in data set [4] is “pH sensitive”. The pKa in data set [5] (295 K, I = 0.1M NaCl) is listed as 5.34.
With `CCN(CC)c1cc(C#Cc2cc(CN(CC(=O)O)CC(=O)O)nc(CN(CC(=O)O)CC(=O)O)c2)ccc1OCCCN` [Complex 104], the “ε (molar extinction coefficient)” value in data set [1] (at the wavelength (330-336 nm)) turned out to be 12000 M⁻¹ cm⁻¹. Also, the “λexc (nm)” value in data set [1] is listed as 330 nm. The “ε” value in data set [1] was 12000 M⁻¹ cm⁻¹. This compound also gave a Q.Y. pH 4 in data set [2] of 3.2%. For the same compound, in data set [2], the “ΦpH 4 (quantum yield)” value worked out at 3.2%. Besides, the Q.Y. pH 8 in data set [2] was 0.17%. The “ΦpH 8 (quantum yield)” value in data set [2] was found to be 0.17%. The Excited state lifetime is reported as 0.38 ms in data set [3] (pH 4); 0.37 ms in data set [3] (pH 5); 0.35 ms in data set [3] (pH 6); 0.32 ms in data set [3] (pH 7); 0.3 ms in data set [3] (pH 8, listed as 104); 0.30 ms in data set [3] (pH 8, listed as drawing 127). In data set [4], the “variation of fluorescence intensity” value is on record as “pH sensitive”. Further, the pKa in data set [5] (0.1 M NaCl (ionic strength)) was 6.35.
As for `CCN(CC)c1cc(C#Cc2cc(CN3CCN(Cc4cccc(P(C)(=O)[O-])n4)CCN(Cc4cccc(P(C)(=O)[O-])n4)CC3)nc(P(C)(=O)[O-])c2)ccc1OC.[Eu+3]` [Complex 14], in data set [1] (absorption spectra pH 4 to 10), the isosbestic point result is given as “not observed”. The “ε (molar extinction coefficient)” value in data set [1] (at the wavelength (330-336 nm)) worked out at 11450 M⁻¹ cm⁻¹. Also, the “λexc (nm)” value in data set [1] is reported as 331 nm. Besides, in data set [1], the “ε” value was 11450 M⁻¹ cm⁻¹. In data set [2], this compound registered a Q.Y. pH 4 of 16.8%. Further, the “ΦpH 4 (quantum yield)” value in data set [2] is listed as 16.8%. In data set [2], this compound returned a Q.Y. pH 8 of 0.5%. In addition, the “ΦpH 8 (quantum yield)” value in data set [2] was 0.5%. The Excited state lifetime in data set [3] (pH 4) was 1.16 ms; in data set [3] (pH 5) it was 1.15 ms; in data set [3] (pH 6) it was 1.06 ms; in data set [3] (pH 7), 0.74 ms; in data set [3] (pH 8), 0.53 ms; in data set [3] (pH 9, listed as 14) it was 0.5 ms. Also, in data set [3] (pH 9, listed as drawing 59), the Excited state lifetime worked out at 0.50 ms. The compound also gave a pKa in data set [5] (295 K, I = 0.1M NaCl) of 6.75.
